According to patent US20120040966A1, “ANTI-VIRAL COMPOUNDS, TREATMENT, AND ASSAY” (priority 2008, published 2012):
Read-outs that look alike come from different tables or passages of the source.

What was measured:
[1] = test system: influenza strain A/VN/1203/2004 (H5N1); assay: microbe, parasite or virus in culture; assay type: cell-based, Influenza A virus (H5N1)
[2] = test system: Madin Darby Canine Kidney (MDCK) cells; assay: cells; assay type: cell-based; conditions: read-out: IC50 (toxicity)
[3] = Influenza A virus, H5N1, MDCK, 72 h, read-out: H5N1 EC50 (@ 50% Via)
[4] = Influenza A virus, H5N1, MDCK, 72 h, read-out: H5N1 EC50 (Inf Pt)
[5] = read-out: H5N1 EC50 (@ 50% Via)

SMILES | EC50 [1, 3] | EC50 [1, 4] | EC50 ([1]; read-out: H5N1 EC50 (Inf Pt)) | IC50 ([2]; Canis lupus familiaris, MDCK) | EC50 [1, 5] | IC50 [2]
COc1ccc(C2NC(=O)NC3=C2CCN(C(C)=O)c2ccccc23)cc1Br (stereo not shown) [28000A] | > 20 µM |  |  |  |  | 
COc1ccc(C2NC(=O)NC3=C2CCN(C(=O)CO)c2ccccc23)cc1Br (stereo not shown) [28001A] | > 20 µM |  |  |  |  | 
COc1ccc(C2NC(=O)NC3=C2CCN(C(=O)COC(C)=O)c2ccccc23)cc1Br (stereo not shown) [28002A] | > 20 µM |  |  |  |  | 
Cc1cccc(C2NC(=O)NC3=C2CCc2ccccc23)c1 (stereo not shown) [compound 22081] |  | 0.55 µM | 0.52 µM | > 50 µM |  | 
Cc1ccc(C2NC(=O)NC3=C2CCc2ccccc23)cc1C (stereo not shown) [compound 22082] |  |  |  | > 50 µM |  | 
Cc1ccc(-c2nc(=O)[nH]c3c2Cc2ccccc2-3)cc1 [compound 22084] | > 50 µM |  |  | > 50 µM |  | 
Oc1nc(-c2ccc3c(c2)OCO3)c2c(n1)-c1ccccc1CC2 [compound 22085] |  |  |  | > 50 µM | < 0.48 µM | 
O=C1NC2=C(CCc3ccccc32)C(c2cccnc2)N1 (stereo not shown) [compound 22086] | > 50 µM |  |  | > 50 µM |  | 
COc1cccc2c1CCc1c(-c3ccc(C)cc3)nc(O)nc1-2 [compound 22088] |  |  |  | > 50 µM | 15.4 µM | 
Cc1ccc(-c2nc(O)nc3c2COc2ccccc2-3)cc1C [compound 22106] | > 50 µM | > 50 µM |  | > 50 µM |  | 
COc1cccc(-c2nc(O)nc3c2COc2ccccc2-3)c1 [compound 22108] | > 50 µM | > 50 µM |  | > 50 µM |  | 
Cc1cccc(-c2nc(O)nc3c2COc2ccccc2-3)c1 [compound 22110] | 10.4 µM | 8.6 µM |  | > 50 µM |  | 
COc1cccc(C2NC(=O)NC3=C2CCc2c(OC)cccc23)c1 (stereo not shown) [compound 22111] | > 50 µM | > 50 µM |  | > 50 µM |  | 
COc1cccc(-c2nc(O)nc3c2CCc2c(OC)cccc2-3)c1 [compound 22112] | > 50 µM | > 50 µM |  | > 50 µM |  | 
COc1cccc2c1CCc1c(-c3ccc(C)c(C)c3)nc(O)nc1-2 [compound 22114] | 13.5 µM |  |  | > 50 µM | 9.1 µM | 
COc1cc(C2NC(=O)NC3=C2CCc2ccccc23)cc(OC)c1OC (stereo not shown) [compound 22115] | > 50 µM | > 50 µM |  | > 50 µM |  | 
COc1cc(-c2nc(O)nc3c2CCc2ccccc2-3)cc(OC)c1OC [compound 22116] | > 50 µM | > 50 µM |  | > 50 µM |  | 
O=C1NC2=C(CCCc3ccccc32)C(c2ccc3c(c2)OCO3)N1 (stereo not shown) [compound 22117] | 4.8 µM | 2.9 µM | 4 µM | > 50 µM | 6.8 µM | 
Oc1nc(-c2ccc3c(c2)OCO3)c2c(n1)-c1ccccc1CCC2 [compound 22118] | > 50 µM | > 50 µM |  | > 50 µM |  | 
Nc1nc(-c2ccc3c(c2)OCO3)c2c(n1)-c1ccccc1CC2 [compound 22120] | > 50 µM | > 50 µM |  | > 50 µM |  | 
Oc1nc(-c2ccc3c(c2)OCO3)c2c(n1)-c1ccccc1CC2 [compound 22122] |  | > 50 µM |  |  | > 50 µM | > 50 µM

SMILES | EC50 [1, 3] | EC50 [1, 4] | EC50 ([1]; read-out: H5N1 EC50 (Inf Pt)) | IC50 ([2]; Canis lupus familiaris, MDCK) | EC50 [1, 5] | IC50 [2]
COc1cccc2c1CCc1c(-c3ccc(C)cc3)nc(O)nc1-2 [compound 22124] |  | > 50 µM |  |  | > 50 µM | > 50 µM
O=C1NC2=C(Cc3ccccc32)C(c2ccc3c(c2)OCO3)N1 (stereo not shown) [compound 22126] | > 50 µM | > 50 µM |  | > 50 µM |  | 
COc1ccc(C2NC(=O)NC3=C2Cc2ccccc23)cc1 (stereo not shown) [compound 22127] | > 50 µM | > 50 µM |  | > 50 µM |  | 
COc1ccc(-c2nc(O)nc3c2Cc2ccccc2-3)cc1 [compound 22128] | > 50 µM | > 50 µM |  | > 50 µM |  | 
COc1ccc(C2NC(=O)NC3=C2COc2ccccc23)cc1 (stereo not shown) [compound 22129] | > 50 µM | > 50 µM |  | > 50 µM |  | 
O=C1NC2=C(CCc3ccccc32)C(c2ccc(Cl)c(Cl)c2)N1 (stereo not shown) [compound 22130] |  |  |  | > 50 µM |  | 
CC1CC2=C(NC(=O)NC2c2ccc3c(c2)OCO3)c2ccccc21 (stereo not shown) [compound 22342] | 0.72 µM | 0.39 µM |  | > 50 µM |  | 
O=C1NC2=C(CCc3ccccc32)C(c2ccc3c(c2)OCCO3)N1 (stereo not shown) [compound 22343] | 45.7 µM | 31.9 µM |  | > 50 µM |  | 
COc1ccc2c(c1)CCC1=C2NC(=O)NC1c1ccc2c(c1)OCO2 (stereo not shown) [compound 22344] | > 50 µM | > 50 µM |  | > 50 µM |  | 
Cc1cccc(C2NC(=O)NC3=C2CCCc2ccccc23)c1 (stereo not shown) [compound 22345] | 18.8 µM | 13.6 µM |  | > 50 µM |  | 
O=C1NC2=C(CCc3ccccc32)C(c2ccc3ccccc3c2)N1 (stereo not shown) [compound 22346] | ≥ 55 µM | > 50 µM |  | > 50 µM |  | 
Nc1cccc(C2NC(=O)NC3=C2CCc2ccccc23)c1 (stereo not shown) [compound 22348] | > 50 µM | > 50 µM |  | > 50 µM |  | 
Nc1ccc(C2NC(=O)NC3=C2CCc2ccccc23)cc1 (stereo not shown) [compound 22350] | 30.6 µM | 17.9 µM |  | > 50 µM |  | 
COc1nc(-c2ccc3c(c2)OCO3)c2c(n1)-c1ccccc1CC2 [compound 22402] | 8.4 µM | 5.2 µM | 5.7 µM | > 50 µM | 14.5 µM | 
Cn1c2c(c(-c3ccc4c(c3)OCO4)nc1=O)CCc1ccccc1-2 [compound 22403] | 5.2 µM | 1.7 µM | 2 µM | > 50 µM | 5.7 µM | 
COc1ccc(C2NC(=O)NC3=C2CCc2ccccc23)cc1O (stereo not shown) [compound 22407] | > 50 µM | > 50 µM |  | > 50 µM |  | 
COc1cc(C2NC(=O)NC3=C2CCc2ccccc23)ccc1O (stereo not shown) [compound 22408] | > 50 µM | > 50 µM |  | > 50 µM |  | 
COc1ccc(C2NC(=O)NC3=C2CCc2ccccc23)c(OC)c1OC (stereo not shown) [compound 22410] | > 50 µM | > 50 µM |  | > 50 µM |  | 
O=C1NC2=C(CCc3ccccc32)C(c2cccc3c2OCO3)N1 (stereo not shown) [compound 22411] | > 50 µM | > 50 µM |  | > 50 µM |  | 
Oc1nc(-c2ccc3c(c2)OCO3)c2c(n1)-c1ccccc1OC2c1ccccc1 (stereo not shown) [compound 22422] | > 50 µM | > 50 µM |  | > 50 µM |  | 
COc1cc(OC)cc(C2NC(=O)NC3=C2CCc2ccccc23)c1 (stereo not shown) [compound 22518] | 4.7 µM | 3.4 µM |  | > 50 µM |  | 

SMILES | EC50 [1, 3] | EC50 [1, 4] | EC50 ([1]; read-out: H5N1 EC50 (Inf Pt)) | IC50 ([2]; Canis lupus familiaris, MDCK) | EC50 [1, 5] | IC50 [2]
COc1cc(C2NC(=O)NC3=C2CSc2ccccc23)ccc1F (stereo not shown) [compound 22519] |  | 6.5 µM |  | > 50 µM |  | 
COc1ccc(C2NC(=O)NC3=C2CSc2ccccc23)cc1F (stereo not shown) [compound 22523] | 0.76 µM | 0.55 µM |  | > 50 µM |  | 
O=C1NC2=C(CCc3ccccc32)C(c2cc(Br)c(O)c(Br)c2)N1 (stereo not shown) [compound 22702] | > 40 µM | > 40 µM |  | > 40 µM |  | 
Cc1cc(C2NC(=O)NC3=C2CCc2ccccc23)cc(C)c1O (stereo not shown) [compound 22705] | > 40 µM | 10 µM |  | > 40 µM |  | 
COc1ccc(C2NC(=O)N(Cl)C3=C2CCc2ccccc23)cc1Br (stereo not shown) [compound 22707] | 0.192 µM | 0.186 µM |  | > 50 µM |  | 
COc1ccc(C2NC(=O)N(O)C3=C2CCc2ccccc23)cc1Br (stereo not shown) [compound 22708] | 1.1 µM | > 0.95 µM |  | > 50 µM |  | 
COc1ccc(-c2nc(=O)[nH]c3c2CCc2ccccc2-3)cc1Br [compound 22710] | > 50 µM | > 50 µM |  | > 50 µM |  | 
COc1ccc(C2NC(=O)NC3=C2CNc2ccccc23)cc1Br (stereo not shown) [compound 23100] | 0.637 µM | 0.718 µM |  | > 40 µM |  | 
COc1ccc(C2NC(=O)NC3=C2CN(C)c2ccccc23)cc1Br (stereo not shown) [compound 23101] | > 6 µM | > 6 µM |  | > 40 µM |  | 
COc1ccc(C2NC(=O)NC3=C2CN(S(C)(=O)=O)c2ccccc23)cc1Br (stereo not shown) [compound 23207] | 29 µM | 31 µM |  | > 40 µM |  | 
COc1ccc(C2NC(=O)NC3=C2CN(C(=O)c2ccncc2)c2ccccc23)cc1Br (stereo not shown) [compound 23208] | > 40 µM | > 40 µM |  | > 40 µM |  | 
COc1ccc(C2NC(=O)Nc3c2cnc2ccccc32)cc1Br (stereo not shown) [compound 23273] | 2.1 µM | 1.6 µM |  | > 40 µM |  | 
COc1ccc(C2NC(=O)NC3=C2CN(C(=O)CN)c2ccccc23)cc1Br (stereo not shown) [compound 24716] | 3.1 µM | 3.1 µM |  | > 40 µM |  | 
CCN(CC)CC(=O)N1CC2=C(NC(=O)NC2c2ccc(OC)c(Br)c2)c2ccccc21 (stereo not shown) [compound 24719] | 1.2 µM | 1.2 µM |  | > 40 µM |  | 
COc1ccc(C2NC(=O)NC3=C2CN(C(=O)C[n+]2ccccc2)c2ccccc23)cc1Br (stereo not shown) [compound 25009] | 7.1 µM | 7.1 µM |  | > 40 µM |  | 
CCOC(=O)CCC(=O)N1CC2=C(NC(=O)NC2c2ccc(OC)c(Br)c2)c2ccccc21 (stereo not shown) [compound 25484] | > 20 µM |  |  |  |  | 
COc1ccc(C2NC(=O)NC3=C2CN(C(=O)OCCO)c2ccccc23)cc1Br (stereo not shown) [compound 25575] | 4.7 µM |  |  |  |  | 
COCCOC(=O)N1CC2=C(NC(=O)NC2c2ccc(OC)c(Br)c2)c2ccccc21 (stereo not shown) [compound 25576] | > 20 µM |  |  |  |  | 
CCOC(=O)N1CC2=C(NC(=O)NC2c2ccc(OC)c(Br)c2)c2ccccc21 (stereo not shown) [compound 25577] | > 20 µM | > 20 µM |  |  |  | 
CCOC(=O)CCC(=O)N1CC2=C(NC(=O)NC2c2ccc(OC)c(Br)c2)c2ccccc21 (stereo not shown) [compound 25578] |  | > 10 µM |  |  | > 20 µM | 
